Source: patent publication US7390812B2, “N, N'-disubstituted piperazine compounds and their use as analgesics” (Gruenenthal GmbH, priority 2001, dated 2008)

Experiments:
NA transporter = molecular target: T1, NA transporter (Rattus norvegicus, UniProt Q63380); assay: Noradrenaline reuptake inhibition (NA uptake inhibition) in synaptosomes; type: biochemical; conditions: synaptosomes from hypothalamus of male rat brains
T1 construct: synaptosomes were freshly isolated from rat brain regions; from tissue; host or cells: rat hypothalamus synaptosomes (P2 fraction)
T1 sequence (Q63380 1-617): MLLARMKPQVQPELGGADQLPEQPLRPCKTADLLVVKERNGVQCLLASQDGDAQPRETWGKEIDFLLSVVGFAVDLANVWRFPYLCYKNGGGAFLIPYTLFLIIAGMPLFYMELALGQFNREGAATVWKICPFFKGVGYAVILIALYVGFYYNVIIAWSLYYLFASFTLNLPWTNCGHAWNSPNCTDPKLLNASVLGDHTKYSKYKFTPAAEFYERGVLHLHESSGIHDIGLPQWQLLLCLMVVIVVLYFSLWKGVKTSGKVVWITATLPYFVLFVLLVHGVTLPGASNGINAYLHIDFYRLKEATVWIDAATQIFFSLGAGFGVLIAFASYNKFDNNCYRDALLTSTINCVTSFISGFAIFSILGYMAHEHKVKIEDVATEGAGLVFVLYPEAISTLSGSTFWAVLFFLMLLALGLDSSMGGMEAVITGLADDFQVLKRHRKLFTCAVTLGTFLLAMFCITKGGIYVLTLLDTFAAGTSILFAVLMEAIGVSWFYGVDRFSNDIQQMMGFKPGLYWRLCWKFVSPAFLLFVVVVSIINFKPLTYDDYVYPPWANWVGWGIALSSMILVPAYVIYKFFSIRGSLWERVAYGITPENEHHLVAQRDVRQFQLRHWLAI
Description: In order to be able to carry out these in vitro studies, synaptosomes were freshly isolated from rat brain regions. A so-called “P2” fraction was used, which was prepared according to the instructions given by Gray and Whittaker (E. G. Gray and V. P. Whittaker (1962) J. Anat. 76, 79-88).

[1] = tested on: binding site 2 of the sodium channel; assay: Binding investigations at sodium channel binding site 2 (BTX binding); conditions: 10 μM; rat cerebrocortex synaptosomes; [3H]-Batrachotoxinin A20 α-benzoate 10 nM; 37° C., 120 min
Description: Binding Investigations at Sodium Channel Binding Site 2
Binding site 2 of the sodium channel is the so-called batrachotoxin (BTX) binding site. [^3H]-Batrachotoxinin A20 α-benzoate (10 nM in the batch) was used as ligand. These ion channel particles (synaptosomes) were enriched from rat cerebrocortex after Gray and Whittaker (E. G. Gray and V. P. Whittaker (1962) J. Anat. 76, 79-88). The radioactivity measured in the presence of veratridine (0.3 mM in the batch) is defined as non-specific binding.
The assay conditions were as published by Pauwels, Leysen and Laduron (P. J. Pauwels, J. E. Leysen and P. M. Laduron (1986) Eur. J. Pharmacol. 124, 291-298). Incubation at 37° C. for 120 min.

SMILES | inhibition at 10 µM (NA transporter) | BTX binding at 10 μM [%] inhibition [1]
Cc1cc(C2(O)CCCCCC2CN2CCN(C)CC2)ccc1F (stereo not shown) [1-(4-Fluoro-3-methyl-phenyl)-2-(4-methyl-piperazin-1-ylmethyl)-cycloheptanol] | 66% | 69%
CN1CCN(CC2CCCCCC2(O)c2ccc(Cl)cc2)CC1 (stereo not shown) [1-(4-Chloro-phenyl)-2-(4-methyl-piperazin-1-ylmethyl)-cycloheptanol] | 70% | 69%
Cc1cc(C2(O)CCCCC2CN2CCN(C)CC2)ccc1F (stereo not shown) [1-(4-Fluoro-3-methyl-phenyl)-2-(4-methyl-piperazin-1-ylmethyl)-cyclohexanol] | 65% | 60%
Cc1ccc(C2(O)CCCCC2CN2CCN(C)CC2)cc1 (stereo not shown) [2-(4-Methyl-piperazin-1-ylmethyl)-1-p-tolyl-cyclohexanol] | 75% | 53%
CCC(O)(CCc1ccccc1)C(C)CN1CCN(C)CC1 (stereo not shown) [3-Ethyl-2-methyl-1-(4-methyl-piperazin-1-yl)-5-phenyl-pentan-3-ol] | 88% | 74%
Cc1cccc(C2(O)CCCCC2CN2CCN(C)CC2)c1 (stereo not shown) [2-(4-Methyl-piperazin-1-ylmethyl)-1-m-tolyl-cyclohexanol] | 44% | 58%
CN1CCN(CC2CCCCCC2(O)c2ccccc2)CC1 (stereo not shown) [2-(4-Methyl-piperazin-1-ylmethyl)-1-phenyl-cycloheptanol] | 50% | 63%
CN1CCN(CC2CCCCCCC2(O)CCc2ccccc2)CC1 (stereo not shown) [2-(4-Methyl-piperazin-1-ylmethyl)-1-phenethyl-cyclooctanol] | 61% | 78%
CCC(O)(Cc1ccc(Cl)cc1)C(C)CN1CCN(c2cccc(Cl)c2)CC1 (stereo not shown) [3-(4-Chloro-benzyl)-1-[4-(3-chloro-phenyl)-piperazin-1-yl]-2-methyl-pentan-3-ol] | 39% | –
CCC(O)(c1cccc(F)c1)C(C)CN1CCN(c2cccc(Cl)c2)CC1 (stereo not shown) [1-[4-(3-Chloro-phenyl)-piperazin-1-yl]-3-(3-fluoro-phenyl)-2-methyl-pentan-3-ol] | 53% | –
CCC(O)(C(C)CN1CCN(c2cccc(Cl)c2)CC1)C1CCCCC1 (stereo not shown) [1-[4-(3-Chloro-phenyl)-piperazin-1-yl]-3-cyclohexyl-2-methyl-pentan-3-ol] | 73% | –
CN1CCN(CC2CCCCC2(O)CCc2ccccc2)CC1 (stereo not shown) [2-(4-Methyl-piperazin-1-ylmethyl)-1-phenethyl-cyclohexanol] | 71% | 65%
CCC(O)(CCCc1ccccc1)C(C)CN1CCN(c2cccc(Cl)c2)CC1 (stereo not shown) [1-[4-(3-Chloro-phenyl)-piperazin-1-yl]-3-ethyl-2-methyl-6-phenyl-hexan-3-ol] | 55% | –
